Calls of active or inactive are those of the source. The calls are words filed in the database; no cut-off is given here.
What was measured:
Format in all cases: functional, cell-based
KB = assay: Cytotoxicity against human KB cells
A549 = assay: Cytotoxicity against human A549 cells
P388 = assay: Cytotoxicity against mouse P388 cells

Structure (SMILES)	Activity (KB)	IC50 (A549)	Activity (P388)
C=C1[C@@H](C)[C@H]2[C@H](Cc3c[nH]c4ccccc34)NC(=O)[C@]23C(=O)C[C@H]2C(=O)C(O)=C(C)[C@@H]2[C@@H](C)C/C=C/[C@H]3[C@@H]1O [CYTOGLOBOSIN A]	inactive	> 10 µM	inactive
C=C1[C@@H](C)[C@H]2[C@H](Cc3c[nH]c4ccccc34)NC(=O)[C@]23C(=O)/C=C/[C@H](O)[C@H](O)/C(C)=C/[C@@H](C)C/C=C/[C@H]3[C@@H]1O [CYTOGLOBOSIN B]	inactive	> 10 µM	inactive
CC1=C(C)[C@H]2[C@H](Cc3c[nH]c4ccccc34)NC(=O)[C@]23C(=O)/C=C/[C@H](O)[C@H](O)/C(C)=C/[C@@H](C)C/C=C/[C@H]3[C@@H]1O [CYTOGLOBOSIN C]	inactive	2.26 µM	inactive
CC1=C[C@@H]2/C=C/C[C@H](C)/C=C(\C)[C@@H](O)[C@@H](O)/C=C/C(=O)[C@]23C(=O)N[C@@H](Cc2c[nH]c4ccccc24)[C@@H]3[C@@H]1C [CYTOGLOBOSIN D]	inactive	2.55 µM	inactive
C/C1=C\[C@@H](C)C/C=C/[C@H]2C=C(CO)[C@@H](C)[C@H]3[C@H](Cc4c[nH]c5ccccc45)NC(=O)[C@]32C(=O)CCC(=O)C1=O [CYTOGLOBOSIN E]	inactive	> 10 µM	inactive

Source: ChEMBL document CHEMBL1157085, “Cytoglobosins A-G, cytochalasans from a marine-derived endophytic fungus, Chaetomium globosum QEN-14” (J Nat Prod, 2010)
